Experimental data from US20090318424A1, “NOVEL COMPOUNDS” (priority 2006, published 2009).
“Also recorded” adds a separate entry of the source.

Tests used:
[1] = tested on: influx of neutrophils to the lung in LPS-challenged rats; experiment: Rat LPS neutrophilia model; assay type: in vivo; settings: LPS aerosol 100 ug/ml 15 min, lavage 4 hours later; in at least one of the range of conditions tested
Method: The effect of compounds on the influx of neutrophils to the lung in LPS-challenged rats is evaluated as follows. The test compound is suspended in one of the following solutions: 0.5% tween 80/PBS, 0.5% tween 80/saline, 10% EtOH/saline (with pH adjusted to 2.0, or 8.0 with HCl, or unadjusted), Saline @ pH 2.0, 6.5 or 8.0, 0.5% Tragacanth, 1% DMSO/20% Encapsin/Saline, or acidified 5% Tragacanth. The suspension process may be aided by the use of a glass homogenizer. For intratracheal administration, the animals are anesthetized with inhaled isoflurane and placed in a supine position, the trachea is intubated with a steel gavage needle (1.5 inch, 22 gauge, small ball) or a Penn-Century Microsprayer Aerosolizer (model IA-IB) and 200 ul of dosing solution is delivered. The animals are visually monitored during the recovery process, which typically occurs within two minutes.
Rats treated with compound or vehicle (15 min-24 hours pretreatment) are exposed to an LPS aerosol (100 ug/ml) for 15 min. Four hours later the rats are euthanized with pentobarbital (100 mg/kg, i.p.) and the airways are lavaged with 5 washes of 5 ml of phosphate buffered saline. The harvested cells are stained (Diffquick) and counted to determine total and differential cell data. In a typical study, macrophages represent 40-70% of the total cells, and polymorphonuclear cells 30-60% of the total cells. Inhibition of neutrophil levels relative to no compound controls is calculated based on the differential counts.
The assay has varying conditions, such as concentration, pretreat time, form of the compound (crystalline, amorphous, salts, micronised), and a wet or dry application of the compound. The data is obtained as % inhibition using a particular concentration and pretreat time.

[2] = tested on: TGF-β-induced increases in fibronectin and thrombospondin; settings: cited from earlier work
[3] = tested on: circulating levels of TNFα; settings: mice; cited from earlier work
[4] = patients suffering from Psoriasis; seen as early as 4 weeks, persisted for 12 weeks; cited from earlier work
[5] = patients with sleep apnea; cited from earlier work

| Compound | inhibition of neutrophilia [1] | melting point | also measured |
| --- | --- | --- | --- |
| Cc1ccc(C(=O)Nc2ccc(C)c(-c3nc(NC4CC(C)(C)NC(C)(C)C4)nc4c3CNC(=O)N4c3c(F)cccc3F)c2)cc1F [23(e), N-(3-{8-(2,6-difluorophenyl)-7-oxo-2-[(2,2,6,6-tetramethyl-4-piperidinyl)amino]-5,6,7,8-tetrahydropyrimido[4,5-d]pyrimidin-4-yl}-4-methylphenyl)-3-fluoro-4-methylbenzamide] | statistically nonsignificant inhibition | 220 °C (dec.) |  |
| Cc1ccc(NC(=O)c2ccsc2)cc1-c1nc(N2CCC(N)CC2)nc2c1CNC(=O)N2c1c(F)cccc1F [Example 11, N-{3-[2-(4-amino-1-piperidinyl)-8-(2,6-difluorophenyl)-7-oxo-5,6,7,8-tetrahydropyrimido[4,5-d]pyrimidin-4-yl]-4-methylphenyl}-3-thiophenecarboxamide] | statistically significant inhibition | 250 to 261 °C (dec.) |  |
| Cc1ccc(C(=O)NCc2ccccc2)cc1-c1nc(N(C)CCCN(C)C)nc2c1CNC(=O)N2c1c(F)cccc1F [Example 17, 3-{8-(2,6-Difluorophenyl)-2-[[3-(dimethylamino)propyl](methyl)amino]-7-oxo-5,6,7,8-tetrahydropyrimido[4,5-d]pyrimidin-4-yl}-4-methyl-N-(phenylmethyl)benzamide] | statistically nonsignificant inhibition | 124 to 127 °C |  |
| Cc1ccc(C(=O)Nc2ccc(C)c(-c3nc(N4CCC(N)CC4)nc4c3CNC(=O)N4c3c(F)cccc3F)c2)cc1F [Example 24, N-{3-[2-(4-amino-1-piperidinyl)-8-(2,6-difluorophenyl)-7-oxo-5,6,7,8-tetrahydropyrimido[4,5-d]pyrimidin-4-yl]-4-methylphenyl}-3-fluoro-4-methylbenzamide] | statistically nonsignificant inhibition | 240 °C |  |
| Cc1ccc(C(=O)Nc2ccc(C)c(-c3nc(OC(C)C)nc4c3CNC(=O)N4c3c(F)cccc3F)c2)cc1F [Example 26, N-(3-{8-(2,6-difluorophenyl)-2-[(1-methylethyl)oxy]-7-oxo-5,6,7,8-tetrahydropyrimido[4,5-d]pyrimidin-4-yl}-4-methylphenyl)-3-fluoro-4-methylbenzamide] | inactive | 253.5 to 255.4 °C |  |
| Cc1ccc(C(=O)Nc2ccc(C)c(-c3nc(N(C)C)nc4c3CNC(=O)N4c3c(F)cccc3F)c2)cc1F [Example 28, N-{3-[8-(2,6-difluorophenyl)-2-(dimethylamino)-7-oxo-5,6,7,8-tetrahydropyrimido[4,5-d]pyrimidin-4-yl]-4-methylphenyl}-3-fluoro-4-methylbenzamide] | statistically nonsignificant inhibition | 257.8 to 264.3 °C |  |
| Cc1ccc(C(=O)NCc2ccccc2)cc1-c1nc(N2CCN(C)CC2)nc2c1CNC(=O)N2c1c(F)cccc1F [Example 148, 3-[8-(2,6-difluorophenyl)-2-(4-methyl-1-piperazinyl)-7-oxo-5,6,7,8-tetrahydropyrimido[4,5-d]pyrimidin-4-yl]-4-methyl-N-(phenylmethyl)benzamide] | statistically nonsignificant inhibition | 164 to 168 °C |  |
| Cc1ccc(C(=O)NCc2ccccc2)cc1-c1nc(NCCCN(C)C)nc2c1CNC(=O)N2c1c(F)cccc1F [Example 151, 3-(8-(2,6-difluorophenyl)-2-{[3-(dimethylamino)propyl]amino}-7-oxo-5,6,7,8-tetrahydropyrimido[4,5-d]pyrimidin-4-yl)-4-methyl-N-(phenylmethyl)benzamide] | statistically nonsignificant inhibition | 141 to 144 °C |  |
| CNC(=O)c1ccc(C)c(-c2nc(NCCCN(C)C)nc3c2CNC(=O)N3c2c(F)cccc2F)c1 [Example 166, 3-(8-(2,6-difluorophenyl)-2-{[3-(dimethylamino)propyl]amino}-7-oxo-5,6,7,8-tetrahydropyrimido[4,5-d]pyrimidin-4-yl)-N,4-dimethylbenzamide] | statistically nonsignificant inhibition | 164 to 167 °C (dec.) |  |
| CCN(CC)CCCNc1nc(-c2cc(C(=O)NC)ccc2C)c2c(n1)N(c1c(F)cccc1F)C(=O)NC2 [Example 172, 3-[2-{[3-(diethylamino)propyl]amino}-8-(2,6-difluorophenyl)-7-oxo-5,6,7,8-tetrahydropyrimido[4,5-d]pyrimidin-4-yl]-N,4-dimethylbenzamide] | statistically nonsignificant inhibition | 133 to 136 °C |  |
| CNC(=O)c1ccc(C)c(-c2nc(N(C)CCCN(C)C)nc3c2CNC(=O)N3c2c(F)cccc2F)c1 [Example 174, 3-{8-(2,6-difluorophenyl)-2-[[3-(dimethylamino)propyl](methyl)amino]-7-oxo-5,6,7,8-tetrahydropyrimido[4,5-d]pyrimidin-4-yl}-N,4-dimethylbenzamide] | inactive | 163 to 165 °C |  |
| CNC(=O)c1ccc(C)c(-c2nc(N3CCC(N4CCCC4)CC3)nc3c2CNC(=O)N3c2c(F)cccc2F)c1 [Example 175, 3-{8-(2,6-difluorophenyl)-7-oxo-2-[4-(1-pyrrolidinyl)-1-piperidinyl]-5,6,7,8-tetrahydropyrimido[4,5-d]pyrimidin-4-yl}-N,4-dimethylbenzamide] | inactive | 189 to 194 °C (dec.) |  |
| CNC(=O)c1ccc(C)c(-c2nc(N3CCC(N4CCCCC4)CC3)nc3c2CNC(=O)N3c2c(F)cccc2F)c1 [Example 176, 3-[2-(1,4′-bipiperidin-1′-yl)-8-(2,6-difluorophenyl)-7-oxo-5,6,7,8-tetrahydropyrimido[4,5-d]pyrimidin-4-yl]-N,4-dimethylbenzamide] | statistically nonsignificant inhibition | 179 to 184 °C (dec.) |  |
| COc1nccc(-c2c(-c3ccc(F)cc3)ncn2C2CCNCC2)n1 [SB-242235] |  |  | TGF-β-induced increases in fibronectin and thrombospondin [2]: inhibited |
| CC(NC(C)(C)C)C(=O)c1cccc(Cl)c1 (stereo not drawn) [bupropion] |  |  | circulating levels of TNFα [3]: reduce circulating levels of TNFα |
| etanercept |  |  | symptoms of depression (HAMD and BDI score) and fatigue [4]: demonstrated efficacy; also recorded: reduce symptoms of depression; sleepiness [5]: decreases in sleepiness |
